Values joined by “and” are separate entries in the source; they are usually repeats but may differ in a detail not shown here. Equal values may be shown once. Active and inactive are the calls of the source.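 The calls were made as follows: active = EC50 at or below a set limit, with no effect in the paired counter-screen assay; inactive = the rest.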

For the test, the target named is Aedes aegypti neuropeptide Y-like receptor 7 (NPYLR7). Description: agonists of mosquito NPYLR7 receptor, confirmation, cell-based, Aedes aegypti, hit validation, mosquito biting behavior (AID 1259427).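 Also: potency of agonists that activate the receptor and raise the calcium signal.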 As to conditions: HEK293T NPYLR7/Galpha15/GCaMP6s, calcium fluorescence.

Usually EC50 stands for the concentration at which the effect is half-maximal. Take `CCc1nn(C(C)C(=O)NC(C)CCc2ccco2)c(=O)c2cc3occc3n12` (configuration not stated): the EC50 result was “inactive”. For `CCOC(=O)C1CCCN(CC(=O)N2N=C(c3ccccc3Cl)CC2c2ccc(Cl)cc2)C1` (configuration not stated) the value was > 20 µM (inactive). For `CCN1CCc2c(sc(NC(=O)COc3ccccc3)c2-c2nc3ccccc3s2)C1` the value was > 20 µM (inactive); for `COc1cc(C=C2C=c3c(O)cccc3=C2O)cc(Cl)c1O`, “inactive”; for `COc1ccc(CCN2COc3ccc4c(c3C2)O/C(=C\c2cccnc2)C4=O)cc1`, > 20 µM (inactive).

Turning to `O=C(O)c1[nH]ncc1CN1CCc2onc(-c3ccc(C(F)(F)F)cc3)c2C1`, the EC50 was > 20 µM (inactive). Take `COc1ccc(C(=O)N(Cc2ccccc2)C2CCC(NC(=O)C3CCN(C(=O)c4ccccc4Cl)CC3)CC2)cc1` (configuration not stated): the EC50 is 18 µM. For `CCOC(=O)N1CCN(c2ccc(/C=C(\C#N)c3nc4ccccc4n3C)o2)CC1` the value was “inactive”. Consider `COc1ccc(CC2c3cc(OC)c(OC)cc3CC[N+]2(C)CCC(=O)OCCCCCOC(=O)CC[N+]2(C)CCc3cc(OC)c(OC)cc3C2Cc2ccc(OC)c(OC)c2)cc1OC` (configuration not stated), for which the EC50 was 3.55 µM. Turning to `COCCOc1ccc(NC(=O)N(C)C(C)C2(C)CC2)cn1` (configuration not stated), the EC50 was > 20 µM (inactive). The same measure for `COCCn1c(C)cn2c3c(=O)n(Cc4ccc(Cl)cc4)c(=O)n(C)c3nc12`: > 20 µM (inactive).

With `CC(C)N=c1c([N+](=O)[O-])nn(-c2ccc(Cl)cc2)n1O`, the EC50 is > 20 µM (inactive). The same measure for `CC1CN(c2ccc(/C=C(\C#N)c3nc4ccccc4[nH]3)o2)CC(C)O1` (configuration not stated): > 20 µM (inactive); for `CCOC(=O)c1cc(O)c(C(=O)OCC)s1`: > 20 µM (inactive). The same measure for `COc1cc(C=CC(=O)c2ccc3c(c2)OCCO3)cc(Br)c1O`: “inactive”. As to `Cc1csc(-c2cc3ccc(O)c(CN4CCN(CCO)CC4)c3oc2=O)n1`, the EC50 is < 0.039 µM (inactive). For `COc1ccc(OC)c(CCNc2nc3cnc(-c4ccc5c(c4)OCO5)cc3n2C)c1` the value was 8.34 µM. The same measure for `N#Cc1cc(C(=O)c2cc(Cl)cc(Cl)c2O)cn(-c2nccs2)c1=O`: 14.4 µM; for `Cc1c(NC(=O)COC(=O)C(C#N)=Cc2ccc(N(C)C)cc2)c(=O)n(-c2ccccc2)n1C`: > 20 µM (inactive); for `COCCCNCc1c(-c2ccc(F)cc2)noc1N1CCOCC1`: > 20 µM (inactive). For `CCCc1[nH]n(-c2ccc(Cl)c(Cl)c2)c(=O)c1/C=C1\NC(=O)N(Cc2ccc(C)cc2)C1=O` the value was > 20 µM (inactive); for `CCOc1cc(/C=C2\C(=N)N3N=CSC3=NC2=O)cc(Br)c1OC(=O)c1ccccc1`, “inactive”; for `O=C1/C(=C/c2cc3ccccc3o2)Oc2c1ccc(O)c2CN1CCN(CCO)CC1`, “inactive”. In the case of `O=C(N=Nc1c(O)[nH]c2ccc(Br)cc12)c1ccccc1Cl`, the EC50 was > 20 µM (inactive). As to `CNC(=O)NC(=O)CCN1CC(c2ccccc2Cl)c2c([nH]c3ccccc23)C1C` (configuration not stated), the EC50 was > 20 µM (inactive). The same measure for `O=C(CNCc1ccccc1)N1CC(=O)N(c2cccc(Cl)c2)C1`: > 20 µM (inactive); for `CC(=O)NCCc1ccc(O)c(O)c1`: “inactive”; for `CCC(CO)[n+]1c(C)cc(C=C2Sc3ccccc3N2CC)cc1C` (configuration not stated): “inactive”. For `O=C1CSC(=S)N1N=Cc1cc(Br)c(O)c(Br)c1` the value was “inactive”. For `CCN1CCN(Cc2c(O)cc(C)c3c2O/C(=C\c2ccco2)C3=O)CC1` the value was > 20 µM (inactive). As for `CNC[C@@H](O)c1ccc(O)c(O)c1`, the EC50 was > 20 µM (inactive).

Regarding `C(=Cc1ccccc1)C=NNc1ncnc2ccccc12`, the EC50 is > 20 µM (inactive). For `CCCc1[nH]n(-c2ccc(Cl)cc2)c(=O)c1/C=C1\NC(=O)N(Cc2ccc(C)cc2)C1=O` the value was > 20 µM (inactive).

Take `Cc1cccc(N2C(=O)NC(=O)/C(=C/c3cn(C)c4ccccc34)C2=O)c1`: the EC50 was > 20 µM (inactive). Regarding `CCN1C(=Cc2cc(C)[n+](C3CCCCC3)c(C)c2)Sc2ccccc21`, the EC50 was > 20 µM (inactive). With `COc1ccc(Cl)cc1Nc1nnc(-c2cc3c(ccc4ccccc43)oc2=O)s1`, the EC50 was > 20 µM (inactive).

Regarding `CC(C)NC[C@H](O)c1ccc(O)c(O)c1`, the EC50 is < 39 nM (inactive) and > 20 µM (inactive). For `Cc1nn(C)c(Cl)c1/C=C1/CCCc2c1nc1ccccc1c2C(=O)O` the value was 19.2 µM. As to `COc1ccccc1CCNC(=O)c1ccc(Cn2c(C)nc3ccccc32)o1`, the EC50 was > 20 µM (inactive). For `CN1CCc2c(sc(NC(=O)Cc3ccccc3)c2-c2nc3ccccc3s2)C1` the value was > 20 µM (inactive); for `C=CCN1C(=O)C(Cc2ccc(OC)cc2)S/C1=N/N=C\c1cccs1` (configuration not stated), > 20 µM (inactive). The same measure for `CCCS(=O)(=O)N1CCN=C1SCc1ccccc1C`: > 20 µM (inactive). As for `Cc1cc(C=C2Sc3ccccc3N2C)cc(C)[n+]1-c1ccccc1`, the EC50 entry is “inactive”. The same measure for `CCN1CCN(C2=CC3=CC(=C(C#N)C#N)CCC3CC2)CC1` (configuration not stated): < 0.039 µM (inactive); for `COc1ccc(OC)c(CCNc2nc3cnc(-c4cccc5ccccc45)cc3n2C)c1`: 12.4 µM. As for `COc1ccccc1Oc1nc2ccccn2c(=O)c1/C=C(\C#N)c1nc2ccccc2s1`, the EC50 was > 20 µM (inactive).

In the case of `Cc1ccc2c(c1)CCCN2CC(=O)N(CCC(N)=O)c1ccccc1`, the EC50 was > 20 µM (inactive). Turning to `CCn1c(O)c(C=Nc2c(C#N)c(C)c(C)n2C2CCCCC2)c(=O)n(CC)c1=S`, the EC50 entry was “inactive”.

Regarding `O=c1[nH]c(CCl)nc2sc3c(c12)CCN(Cc1ccccc1)C3`, the EC50 was > 20 µM (inactive).

With `CC(C)(C)c1cnc(CSc2cnc(NC(=O)C3CCNCC3)s2)o1`, the EC50 is 14.9 µM. The same measure for `CC(C(=O)O)N1C(=O)/C(=C\c2ccc(O)cc2)SC1=S` (configuration not stated): > 20 µM (inactive). For `CNC[C@H](O)c1ccc(O)c(O)c1`, the EC50 entry was “inactive”. For `CC(C)OC(=O)C(C(=O)C(F)(F)F)c1cc(NS(=O)(=O)c2ccc(Cl)cc2)ccc1O` (configuration not stated) the value was > 20 µM (inactive); for `O=c1cc(C(F)(F)F)c2ccc(O)cc2o1`, “inactive”.

As to `C=CCN1C=CC(=CC=C(C#N)C#N)C=C1`, the EC50 entry was “inactive”. For `Cc1nc(=O)c(-c2ccccc2)c(C)n1-c1ccccc1O` the value was > 20 µM (inactive); for `COc1cc(NC(=O)N2CC(=O)N3CCc4c(F)cccc4C3C2)cc(OC)c1OC` (configuration not stated), > 20 µM (inactive); for `O=C(COc1ccccc1)N1CCCC(CNS(=O)(=O)c2cccs2)C1` (configuration not stated), 13.2 µM. For `O=C(O)CCn1c(O)c(C=C2C=Nc3ccccc32)sc1=S` the value was > 20 µM (inactive); for `CCCCN(CC(=O)Nc1c(-c2ccccc2)c(C)nn1-c1ccccc1C)S(=O)(=O)c1ccc(F)cc1`, > 20 µM (inactive). For `COc1ccccc1N=c1oc2cc(O)ccc2cc1-c1nc2ccccc2[nH]1` the value was “inactive”; for `CC1C(=O)c2cccc3c(=O)n(-c4ccccc4)c(O)c(c23)C1=O` (configuration not stated), 5.77 µM; for `CN(C)c1ccc(/C=C2/SC(=S)N(CC(=O)O)C2=O)cc1Br`, “inactive”. Regarding `CCOc1cc(/C=C(\C#N)c2nc3ncc(Br)cc3[nH]2)ccc1O`, the EC50 result is “inactive”. As to `COc1ccc(/C=C2\Oc3c(ccc4c3CN(Cc3ccncc3)CO4)C2=O)cc1`, the EC50 entry is “inactive”.

Take `Cc1ccc(C(=O)C=Cc2ccc(N(C)C)cc2)o1`: the EC50 was < 0.039 µM (inactive). Take `CCOC(=O)c1c(-c2ccccc2)csc1N=Cc1nc(-c2ccccc2)oc1O`: the EC50 is > 20 µM (inactive). The same measure for `CCCC[n+]1c(C)cc(C=C2Sc3ccccc3N2C)cc1C`: > 20 µM (inactive); for `O=C(c1nccc2ccccc12)N1CCN(CC2CCCC2)CC1`: > 20 µM (inactive); for `O=C1NC(=NS(=O)(=O)c2ccccc2)SC1=Cc1cc([N+](=O)[O-])ccc1O`: > 20 µM (inactive). The same measure for `CC1(C)OC2OC(C(O)c3cc(O)c4c(c3O)C(=O)c3ccccc3C4=O)C(C)(O)C2O1` (configuration not stated): “inactive”; for `O=C(O)CN1C(=O)/C(=C\c2cc([N+](=O)[O-])cc(Br)c2O)SC1=S`: “inactive”; for `CCOC(=O)N1CCC(NC(=O)c2sc3nc4c(c(C(F)(F)F)c3c2N)CC(C)CC4)CC1` (configuration not stated): > 20 µM (inactive). For `Cc1ccc(C2=NN(C(=O)CN3CCN(C)CC3)C(c3ccccc3Cl)C2)cc1` (configuration not stated) the value was > 20 µM (inactive); for `COc1cc(-c2nc3n(n2)C(c2ccc(O)cc2)C(C(N)=O)=C(C)N3)cc(OC)c1OC` (configuration not stated), > 20 µM (inactive). Consider `Nc1ncnc2c1ncn2[C@@H]1O[C@H](CO)[C@@H](O)[C@H]1O`, for which the EC50 entry was “inactive”. For `CCCCCN=C(N)NN=Cc1c[nH]c2ccc(OC)cc12` the value was 7.37 µM; for `COCCN=Cc1cc(I)cc(I)c1O`, > 20 µM (inactive); for `CN1C(=S)N(C2CCCCC2)C(=O)/C1=C\c1ccc2c(c1)OCO2`, > 20 µM (inactive).

Consider `COc1cccc(CNC2CC2)c1OCc1nc(CO)cs1`, for which the EC50 was > 20 µM (inactive). For `CN1C(=CC=C2C(=O)Oc3ccccc3C2=O)C(C)(C)c2ccccc21` the value was “inactive”; for `CSc1ccc(C2CC(c3cccs3)=Nc3ncnn32)cc1` (configuration not stated), “inactive”. For `CCCCN(C)C1=CC2=CC(=C(C#N)C#N)CCC2CC1` (configuration not stated) the value was < 0.039 µM (inactive). Turning to `CCCCCn1c(=O)c2c(nc3n2CCN3c2cc(C)cc(C)c2)n(C)c1=O`, the EC50 was > 20 µM (inactive). For `NCCNc1ccc2c3c(cccc13)C(=O)N(c1ccc(Cl)cc1)C2=O` the value was “inactive”; for `CC(=O)Nc1nc(COC(=O)c2[nH]c(C)c(C(=O)OC(C)C)c2C)cs1`, > 20 µM (inactive). Turning to `CC[C@@]1(O)C(=O)OCc2c1cc1n(c2=O)Cc2cc3c(CN(C)C)c(O)ccc3nc2-1`, the EC50 entry was “inactive”.

(Values after PubChem BioAssay AID1259427 (Fisher Drug Discovery Resource Center, 2018).)
